Source: patent publication US9049864B2, “Pyridazinone herbicidal compounds” (Syngenta Limited, priority 2012, dated 2015)

Experiments:
Experiment in all cases: Post-emergence herbicidal glasshouse test, percentage damage to the plant
Type in all cases: in vivo
[1] = tested on: Alopecurus myosuroides (ALOMY)
Description: (§1) Seeds of a variety of test species are sown in standard soil in pots:—Solanum nigrum (SOLNI), Amaranthus retoflexus (AMARE), Setaria faberi (SETFA), Alopecurus myosuroides (ALOMY), Echinochloa crus-galli (ECHCG), Ipomoea hederacea (IPOHE). After 8 days cultivation (post-emergence) under controlled conditions in a glasshouse (at 24/16° C., day/night; 14 hours light; 65% humidity), the plants are sprayed with an aqueous spray solution derived from the formulation of the technical active ingredient in acetone/water (50:50) solution containing 0.5% Tween 20 (polyoxyethelyene sorbitan monolaurate, CAS RN 9005-64-5). Compounds are applied at 1000 g/ha. The test plants are then grown in a glasshouse under controlled conditions in a glasshouse (at 24/16° C., day/night; 14 hours light; 65% humidity) and watered twice daily. After 13 days, the test is evaluated for the percentage damage caused to the plant. The biological activities are shown in the following table on a five point scale (5=80-100%; 4=60-79%; 3=40-59%; 2=20-39%; 1=0-19%). A comparative experiment is conducted to compare the biological efficacy of a compound of the present invention with those of WO 2011/045271. The test is performed as outlined above using the following compounds. Three different application rates are employed (250 g/ha, 500 g/ha and 1000 g/ha).

[2] = tested on: Amaranthus retoflexus (AMARE)
Description: as §1

[3] = tested on: Echinochloa crus-galli (ECHCG)
Description: as §1

[4] = tested on: Ipomoea hederacea (IPOHE)
Description: as §1

Setaria faberi (SETFA) = tested on: Setaria faberi (SETFA)
Description: as §1

Solanum nigrum (SOLNI) = tested on: Solanum nigrum (SOLNI)
Description: as §1

[5] = comparative experiment, rate 250 g/ha
[6] = comparative experiment, rate 500 g/ha
[7] = comparative experiment, rate 1000 g/ha
[8] = post-emergence, 1000 g/ha, evaluated after 13 days

Compound	POST Application ALOMY, percentage damage (five point scale) [1, 8]	POST Application AMARE, percentage damage (five point scale) [2, 8]	POST Application ECHCG, percentage damage (five point scale) [3, 8]	POST Application IPOHE, percentage damage (five point scale) [4, 8]	POST Application SETFA, percentage damage (five point scale) (Setaria faberi (SETFA); [8])	POST Application SOLNI, percentage damage (five point scale) (Solanum nigrum (SOLNI); [8])	also measured
CN1N=CC(=O)C(n2nc(Cl)c3ccccc32)C1=O (stereo not drawn) [Compound 1.001, 4-(3-chloroindazol-1-yl)-2-methyl-pyridazine-3,5-dione]	1 (1=0-19%)	5 (5=80-100%)	4 (4=60-79%)	5 (5=80-100%)	2 (2=20-39%)	5 (5=80-100%)	POST Application ALOMY, percentage damage (five point scale) [1, 5]: 2 (2=20-39%); POST Application ALOMY, percentage damage (five point scale) [1, 6]: 2 (2=20-39%); POST Application ALOMY, percentage damage (five point scale) [1, 7]: 2 (2=20-39%); POST Application AMARE, percentage damage (five point scale) [2, 5]: 4 (4=60-79%); POST Application AMARE, percentage damage (five point scale) [2, 6]: 4 (4=60-79%); POST Application AMARE, percentage damage (five point scale) [2, 7]: 4 (4=60-79%); POST Application ECHCG, percentage damage (five point scale) [3, 5]: 2 (2=20-39%); POST Application ECHCG, percentage damage (five point scale) [3, 6]: 3 (3=40-59%); POST Application ECHCG, percentage damage (five point scale) [3, 7]: 3 (3=40-59%); POST Application IPOHE, percentage damage (five point scale) [4, 5]: 5 (5=80-100%); POST Application IPOHE, percentage damage (five point scale) [4, 6]: 5 (5=80-100%); POST Application IPOHE, percentage damage (five point scale) [4, 7]: 5 (5=80-100%); POST Application SETFA, percentage damage (five point scale) (Setaria faberi (SETFA); [5]): 1 (1=0-19%); POST Application SETFA, percentage damage (five point scale) (Setaria faberi (SETFA); [6]): 1 (1=0-19%); POST Application SETFA, percentage damage (five point scale) (Setaria faberi (SETFA); [7]): 3 (3=40-59%); POST Application SOLNI, percentage damage (five point scale) (Solanum nigrum (SOLNI); [5]): 5 (5=80-100%); POST Application SOLNI, percentage damage (five point scale) (Solanum nigrum (SOLNI); [6]): 5 (5=80-100%); POST Application SOLNI, percentage damage (five point scale) (Solanum nigrum (SOLNI); [7]): 5 (5=80-100%)
CC1=NN(C)C(=O)C(n2ccc3ccccc32)C1=O (stereo not drawn) [Compound 1.002]	1 (1=0-19%)	4 (4=60-79%)	1 (1=0-19%)	4 (4=60-79%)	1 (1=0-19%)	5 (5=80-100%)	–
CC1=NN(C)C(=O)C(n2c(Cl)c(Cl)c3ccccc32)C1=O (stereo not drawn) [Compound 1.003, 4-(2,3-dichloroindol-1-yl)-2,6-dimethyl-pyridazine-3,5-dione]	1 (1=0-19%)	5 (5=80-100%)	2 (2=20-39%)	5 (5=80-100%)	1 (1=0-19%)	5 (5=80-100%)	–
CN1N=CC(=O)C(n2ccc3cc(Br)ccc32)C1=O (stereo not drawn) [Compound 1.004]	1 (1=0-19%)	1 (1=0-19%)	1 (1=0-19%)	1 (1=0-19%)	1 (1=0-19%)	4 (4=60-79%)	–
CN1N=CC(=O)C(n2ccc3c(Br)cccc32)C1=O (stereo not drawn) [Compound 1.005]	1 (1=0-19%)	2 (2=20-39%)	1 (1=0-19%)	2 (2=20-39%)	3 (3=40-59%)	5 (5=80-100%)	–
CN1N=CC(=O)C(n2ccc3ccc(Br)cc32)C1=O (stereo not drawn) [Compound 1.006]	1 (1=0-19%)	1 (1=0-19%)	1 (1=0-19%)	1 (1=0-19%)	1 (1=0-19%)	4 (4=60-79%)	–
Cc1cn(C2C(=O)C=NN(C)C2=O)c2ccccc12 (stereo not drawn) [Compound 1.007]	1 (1=0-19%)	2 (2=20-39%)	1 (1=0-19%)	1 (1=0-19%)	1 (1=0-19%)	5 (5=80-100%)	–
Cc1cccc2ccn(C3C(=O)C=NN(C)C3=O)c12 (stereo not drawn) [Compound 1.008]	1 (1=0-19%)	1 (1=0-19%)	1 (1=0-19%)	2 (2=20-39%)	1 (1=0-19%)	4 (4=60-79%)	–
CN1N=CC(=O)C(n2ncc3ccccc32)C1=O (stereo not drawn) [Compound 1.009]	1 (1=0-19%)	4 (4=60-79%)	1 (1=0-19%)	1 (1=0-19%)	1 (1=0-19%)	4 (4=60-79%)	–
CC(C)N1N=CC(=O)C(n2cc(Cl)c3ccccc32)C1=O (stereo not drawn) [Compound 1.010]	1 (1=0-19%)	1 (1=0-19%)	1 (1=0-19%)	1 (1=0-19%)	1 (1=0-19%)	3 (3=40-59%)	–
CN1N=CC(=O)C(n2cc(Cl)c3ccccc32)C1=O (stereo not drawn) [Compound 1.012, 4-(3-Chloro-indol-1-yl)-2-methyl-2H-pyridazine-3,5-dione]	1 (1=0-19%)	5 (5=80-100%)	2 (2=20-39%)	5 (5=80-100%)	5 (5=80-100%)	5 (5=80-100%)	–
CN1N=CC(=O)C(n2c(Cl)c(Cl)c3ccccc32)C1=O (stereo not drawn) [Compound 1.013]	1 (1=0-19%)	5 (5=80-100%)	1 (1=0-19%)	5 (5=80-100%)	2 (2=20-39%)	5 (5=80-100%)	–
CN1N=CC(=O)C(n2ccc3ccccc32)C1=O (stereo not drawn) [Compound 1.014]	1 (1=0-19%)	3 (3=40-59%)	4 (4=60-79%)	4 (4=60-79%)	1 (1=0-19%)	5 (5=80-100%)	–
CN1N=CC(=O)C(n2cc(Cl)c3cc(Cl)ccc32)C1=O (stereo not drawn) [Compound 1.016]	1 (1=0-19%)	2 (2=20-39%)	1 (1=0-19%)	4 (4=60-79%)	1 (1=0-19%)	5 (5=80-100%)	–
CN1N=CC(=O)C(n2ccc3cc(Cl)ccc32)C1=O (stereo not drawn) [Compound 1.017]	1 (1=0-19%)	3 (3=40-59%)	1 (1=0-19%)	4 (4=60-79%)	1 (1=0-19%)	5 (5=80-100%)	–
CC1=NN(C)C(=O)C(n2c(Cl)c(Cl)c3ccc(Cl)cc32)C1=O (stereo not drawn) [Compound 1.020]	1 (1=0-19%)	5 (5=80-100%)	4 (4=60-79%)	5 (5=80-100%)	1 (1=0-19%)	5 (5=80-100%)	–
CC1=NN(C)C(=O)C(n2c(Cl)c(Br)c3ccccc32)C1=O (stereo not drawn) [Compound 1.021]	2 (2=20-39%)	5 (5=80-100%)	2 (2=20-39%)	5 (5=80-100%)	1 (1=0-19%)	5 (5=80-100%)	–
